Assay results as given in patent US20230365639A1, “DEFENSIN FRAGMENT DERIVED LIPOPEPTIDES FOR TREATMENT OF DRUG-RESISTANT MICROORGANISMS” (priority 2020, published 2023).

Assays:
[1] = test system: bacteria from the ESKAPE panel; assay type: cell-based; conditions: broth microdilution, 1.17-150 μM peptide, 2 hours
Description: Methods: Broth microdilution assay. Log-phase bacteria were collected by centrifugation (2500 rpm, 10 min, 4° C.), washed twice with 10 mM sodium phosphate buffer containing 1% (w/v) TSB and the optical density at 600 nm was adjusted to 0.1. Approximately 5×10^5 CFU/ml bacteria were incubated with serial peptide concentrations (1.17-150 μM) in a final volume of 100 μl in 10 mM sodium phosphate buffer containing 1% (w/v) TSB for 2 hours at 37° C. After incubation, 100 μl of 6% TSB (w/v) was added and absorbance was measured at 600 nm (Tecan, Switzerland) and monitored for 18 hours. Afterwards, 100 μl per well was plated on LB agar to determine the number of viable bacteria microbiologically. Bactericidal activity was expressed as the LC99.9, the lowest concentration that killed ≥99.9% of bacteria.

red blood cell = assay: Hemolysis assay; assay type: cell-based
Description: Methods: Cellular toxicity was determined by Lactate dehydrogenase concentration and WST-1 cell proliferation assay as well as hemolysis assay.

[2] = Acute tolerability after oral administration; assay type: in vivo, C57BL/6N mice
Description: Methods: C57BL/6N mice were generated and maintained (including breeding and housing) at the animal facilities of the Helmholtz Centre for Infection Research (HZI) under enhanced specific pathogen-free (SPF) conditions (Stehr et al., 2009). Animals used in the experiments were gender and age matched. Female and male mice with an age of 8-12 weeks were used. Sterilized food and water ad libitum were provided. Mice were kept under a strict 12-hour light cycle (lights on at 7:00 am and off at […]) and housed in groups of two to six mice per cage. All mice were euthanized by asphyxiation with CO2 and cervical dislocation. All animal experiments were performed in agreement with the local government of Lower Saxony, Germany (approved permission No. 33.19-42502-04-18/2499).
Age- and gender-matched mice received two doses of peptides (0, 125 μg or 250 μg) solved in 100 μl PBS orally per day. Bodyweight and appearance were recorded. The following day, mice were sacrificed and stomach, kidney, spleen, liver, small intestine, cecum and colon were removed for histological scoring. Around 1 ml of blood was taken from the heart to measure inflammatory markers including creatinine in the kidney and the enzyme levels of glutamate-oxalacetate-transaminase (GOT) in the liver.

[3] = test system: C. rodentium strain ICC180; assay: Established gastrointestinal infection caused by C. rodentium; assay type: in vivo, mice; conditions: two doses of 250 μg orally 5 days post infection; content or tissue not specified
Description: All mice were euthanized by asphyxiation with CO2 at indicated time points. Intestinal tissues (small intestine, cecum, colon) were removed aseptically. To collect intestinal content, organs were flushed with PBS. Organs were opened longitudinally, cleaned thoroughly with PBS and weighted. Organs and content were homogenized in PBS using a Polytron homogenizer (Kinemtatica). Dilutions of homogenized samples were plated on LB plates containing 50 μg/ml kanamycin to determine CFUs.
Methods: Citrobacter rodentium infection. Bioluminescence expressing C. rodentium strain ICC180 was used for all infection experiments (Wiles et al., 2004). C. rodentium inoculae were prepared by culturing bacteria overnight at 37° C. in LB broth with 50 μg/mI kanamycin. Subsequently, the culture was diluted 1:100 in fresh medium, and sub-cultured for 4 hours at 37° C. in LB broth (Thiemann et al., 2017). Bacteria were washed twice in phosphate-buffered saline (PBS). Mice were orally inoculated with 10^8 CFU of C. rodentium diluted in 200 μl PBS. Weight of the mice was monitored and feces was collected for measurements of the pathogen burden. 5 days post infection mice received twice 250 μg peptide solved in 100 μl PBS or only PBS orally. The following day, mice were sacrificed to assess bacterial burden in the lumen and tissues of the cecum and the colon. […]

Substance: Pam2-Glc-Suc-RGKAKCCK [Pam-1]
- bactericidal activity [1]: no or low bactericidal activity
- red blood cell disruption (hemolysis) (red blood cell): minimal red blood cell disruption
- histological examination of gastrointestinal, liver and kidney tissues ([2]; mouse, in vivo, po): no alterations
- serum level of creatinine ([2]; mouse, in vivo, po): no significant differences between the groups
- serum level of glutamic oxaloacetic transaminase (GOT) ([2]; mouse, in vivo, po): no significant differences between the groups
- acute toxicity (histological analysis and serum markers) ([2]; oral, mice, 24 hours after application, 125 or 250 μg doses): did not reveal any acute toxicity
- CFU's of C. rodentium in cecum [3]: did not reduce
- CFU's of C. rodentium in colon [3]: did not reduce
